Reference: PubChem BioAssay (NCI)
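Compound exposure: 48 hours, 5 concentrations, 96-well plates. Abbreviation: GI50, concentration required for 50% inhibition of growth. At the TGI there is no net growth.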

Legend:
Assay in all cases: growth of human tumour cells (NCI), 48 h
786-0 renal = test system: 786-0 renal
A498 renal = test system: A498 renal
A549 NSCLC = test system: A549 NSCLC
ACHN renal = test system: ACHN renal
BT-549 breast = test system: BT-549 breast
CAKI-1 renal = test system: CAKI-1 renal
DU-145 prostate = test system: DU-145 prostate
EKVX NSCLC = test system: EKVX NSCLC
HCC-2998 colon = test system: HCC-2998 colon
HCT-116 colon = test system: HCT-116 colon
HCT-15 colon = test system: HCT-15 colon
HL-60(TB) leukemia = test system: HL-60(TB) leukemia
HOP-62 NSCLC = test system: HOP-62 NSCLC
HOP-92 NSCLC = test system: HOP-92 NSCLC
HS 578T breast = test system: HS 578T breast
HT29 colon = test system: HT29 colon
IGROV1 ovarian = test system: IGROV1 ovarian
K-562 leukemia = test system: K-562 leukemia
KM12 colon = test system: KM12 colon
LOX IMVI melanoma = test system: LOX IMVI melanoma
M14 melanoma = test system: M14 melanoma
MALME-3M melanoma = test system: MALME-3M melanoma
MDA-MB-231 breast = test system: MDA-MB-231 breast
MDA-MB-435 = test system: MDA-MB-435
NCI-H226 lung = test system: NCI-H226 lung
NCI-H23 lung = test system: NCI-H23 lung
NCI-H460 lung = test system: NCI-H460 lung
NCI-H522 lung = test system: NCI-H522 lung
NCI/ADR-RES ovarian = test system: NCI/ADR-RES ovarian
OVCAR-4 ovarian = test system: OVCAR-4 ovarian
OVCAR-5 ovarian = test system: OVCAR-5 ovarian
OVCAR-8 ovarian = test system: OVCAR-8 ovarian
PC-3 prostate = test system: PC-3 prostate
RPMI-8226 leukemia = test system: RPMI-8226 leukemia
RXF 393 renal = test system: RXF 393 renal
SF-268 CNS = test system: SF-268 CNS
SF-295 CNS = test system: SF-295 CNS
SF-539 CNS = test system: SF-539 CNS
SK-MEL-2 melanoma = test system: SK-MEL-2 melanoma
SK-MEL-28 melanoma = test system: SK-MEL-28 melanoma
SK-OV-3 ovarian = test system: SK-OV-3 ovarian
SN12C renal = test system: SN12C renal
SNB-19 CNS = test system: SNB-19 CNS
SNB-75 CNS = test system: SNB-75 CNS
SW-620 colon = test system: SW-620 colon
TK-10 renal = test system: TK-10 renal
U251 CNS = test system: U251 CNS
UACC-62 melanoma = test system: UACC-62 melanoma
UO-31 renal = test system: UO-31 renal

Fc1cccc(Cl)c1/C=N/Nc1nc(N/N=C/c2c(F)cccc2Cl)nc(N2CCCCC2)n1
GI50 (786-0 renal): 3.44 µM | TGI (786-0 renal): 14.7 µM | GI50 (A498 renal): 2.4 µM | TGI (A498 renal): 13.2 µM | GI50 (A549 NSCLC): 3.04 µM | TGI (A549 NSCLC): > 100 µM | GI50 (ACHN renal): 3.04 µM | TGI (ACHN renal): 12.8 µM | GI50 (BT-549 breast): 4.45 µM | TGI (BT-549 breast): 20.9 µM | GI50 (CAKI-1 renal): 3.01 µM | TGI (CAKI-1 renal): 15.5 µM | GI50 (DU-145 prostate): 11.7 µM | TGI (DU-145 prostate): > 100 µM | GI50 (EKVX NSCLC): 1.54 µM | TGI (EKVX NSCLC): > 100 µM | GI50 (HCC-2998 colon): 3.68 µM | TGI (HCC-2998 colon): > 100 µM | GI50 (HCT-116 colon): 2.83 µM | TGI (HCT-116 colon): 11.9 µM | GI50 (HCT-15 colon): 2.82 µM | TGI (HCT-15 colon): > 100 µM | GI50 (HL-60(TB) leukemia): 2 µM | TGI (HL-60(TB) leukemia): > 100 µM | GI50 (HOP-62 NSCLC): 2.85 µM | TGI (HOP-62 NSCLC): 12 µM | GI50 (HOP-92 NSCLC): 1.47 µM | TGI (HOP-92 NSCLC): 5.36 µM | GI50 (HS 578T breast): 2.44 µM | TGI (HS 578T breast): 15.4 µM | GI50 (HT29 colon): 2.9 µM | TGI (HT29 colon): > 100 µM | GI50 (IGROV1 ovarian): 3.16 µM | TGI (IGROV1 ovarian): > 100 µM | GI50 (K-562 leukemia): 3.08 µM | TGI (K-562 leukemia): > 100 µM | GI50 (KM12 colon): 2.93 µM | TGI (KM12 colon): > 100 µM | GI50 (LOX IMVI melanoma): 3.77 µM | TGI (LOX IMVI melanoma): > 100 µM | GI50 (M14 melanoma): 2.4 µM | TGI (M14 melanoma): 9 µM | GI50 (MALME-3M melanoma): 2.21 µM | TGI (MALME-3M melanoma): 6.26 µM | GI50 (MDA-MB-231 breast): 7.65 µM | TGI (MDA-MB-231 breast): 24.4 µM | GI50 (MDA-MB-435): 2.86 µM | TGI (MDA-MB-435): > 100 µM | GI50 (NCI-H226 lung): 6.48 µM | TGI (NCI-H226 lung): > 100 µM | GI50 (NCI-H23 lung): 3.42 µM | TGI (NCI-H23 lung): 16.8 µM | GI50 (NCI-H460 lung): 3.14 µM | TGI (NCI-H460 lung): > 100 µM | GI50 (NCI-H522 lung): 2.57 µM | TGI (NCI-H522 lung): 9.68 µM | GI50 (NCI/ADR-RES ovarian): 2.76 µM | TGI (NCI/ADR-RES ovarian): > 100 µM | GI50 (OVCAR-4 ovarian): 2.58 µM | TGI (OVCAR-4 ovarian): > 100 µM | GI50 (OVCAR-5 ovarian): 3.8 µM | TGI (OVCAR-5 ovarian): > 100 µM | GI50 (OVCAR-8 ovarian): 3.89 µM | TGI (OVCAR-8 ovarian): > 100 µM | GI50 (PC-3 prostate): 2.06 µM | TGI (PC-3 prostate): > 100 µM | GI50 (RPMI-8226 leukemia): 2.26 µM | TGI (RPMI-8226 leukemia): > 100 µM | GI50 (RXF 393 renal): 2.65 µM | TGI (RXF 393 renal): 11.5 µM | GI50 (SF-268 CNS): 4.22 µM | TGI (SF-268 CNS): 52.9 µM | GI50 (SF-295 CNS): 1.01 µM | TGI (SF-295 CNS): 10.7 µM | GI50 (SF-539 CNS): 7.65 µM | TGI (SF-539 CNS): 24.3 µM | GI50 (SK-MEL-2 melanoma): 1.69 µM | TGI (SK-MEL-2 melanoma): 3.91 µM | GI50 (SK-MEL-28 melanoma): 3.41 µM | TGI (SK-MEL-28 melanoma): > 100 µM | GI50 (SK-OV-3 ovarian): 3.65 µM | TGI (SK-OV-3 ovarian): 15.4 µM | GI50 (SN12C renal): 2.85 µM | TGI (SN12C renal): > 100 µM | GI50 (SNB-19 CNS): 3.25 µM | TGI (SNB-19 CNS): 18 µM | GI50 (SNB-75 CNS): 2.36 µM | TGI (SNB-75 CNS): 10.5 µM | GI50 (SW-620 colon): 3.51 µM | TGI (SW-620 colon): > 100 µM | GI50 (TK-10 renal): 3.73 µM | TGI (TK-10 renal): 9.11 µM | GI50 (U251 CNS): 3.56 µM | TGI (U251 CNS): 22.5 µM | GI50 (UACC-62 melanoma): 2.35 µM | TGI (UACC-62 melanoma): 9.5 µM | GI50 (UO-31 renal): 2.01 µM | TGI (UO-31 renal): > 100 µM
